According to US9908899B2 (BIOMARIN PHARMACEUTICAL INC., priority 2011, dated 2018):
Like-named read-outs stand apart in the source and are kept apart here.

Tests used:
[1] = system: GM 15850(lymphoblastoid cells line) cells; assay: In-cell deacetylase inhibition assay (DAC assay); format: cell-based; conditions: GM 15850 cells, 4 h incubation, read-out: 850 DAC (in-cell deacetylase inhibition IC50)
Description: Compound dilutions were made in 100% DMSO followed by parallel dilution in media with 2% DMSO. 10 μl of the compound dilutions were added to the cells to achieve the desired concentrations. The final concentration of DMSO in each well was 0.2%. The cells were incubated for 4 h at 37° C. with 5% CO2. After incubation, the cells were centrifuged down and the supernatant was removed. […] The reaction was stopped after 30 min incubation by addition of 50 μL developer (6 mg/mL trypsin in HDAC assay buffer). The reaction was allowed to develop for 30 min at room temperature and the fluorescence signal was detected using a fluorometer (Spectramax M2, Molecular Devices, Sunnyvale, Calif.) with excitation and emission wavelengths of 360 nm and 470 nm respectively. The data was fitted to a sigmoidal dose response equation with variable slope in GraphPad Prism 5.0 (GraphPad Software, La Jolla, Calif.) to determine IC50. Bottom and top of the curve were fixed to the average fluorescence response of control wells with no cells and cells but no compound respectively.

[2] = target: HDAC2 (Homo sapiens (Human), UniProt Q92769); assay: HDAC activity inhibition assay, HDAC2; format: biochemical
Description: (§1) The HDAC activity inhibition assay was performed as follows to determine the ability of a test compound to inhibit HDAC enzymatic activity. […] Following pre-incubation, Fluor-de-Lys™ substrate (Enzo Life Sciences, Plymouth Meeting, Pa., BML-KI104-0050) was added to a final concentration of 10 μM and plates were further incubated for 30 minutes at room temperature. […] IC50 values were calculated by using a sigmoidal dose-response (variable slope) equation in GraphPad Prism® 5 for Windows (GraphPad Software, La Jolla, Calif.).

[3] = target: HDAC3/NcoR2 (Homo sapiens (Human), UniProt O15379); assay: HDAC activity inhibition assay, HDAC3/NcoR2; format: biochemical
Description: as §1

[4] = target: HDAC1 (Homo sapiens (Human), UniProt Q13547); assay: HDAC activity inhibition assay, HDAC1; format: biochemical
Description: as §1

[5] = Brain penetration studies; conditions: Table 4; mice; Cmax(brain)/Cmax(plasma)
Description: Test compounds were prepared at either 0.5 mg/ml or 5 mg/ml in 30% hydroxypropyl-β-cyclodextrin, 100 mM sodium acetate pH 5.5, 5% DMSO. C57/BL6/J mice were dosed s.c. at 5 mg/kg or 50 mg/kg, or i.v. at 5 mg/kg. Animals were euthanized at pre-dose, 5, 15, 30 min, 1, 2 and 4 hours post-dose and plasma and brain obtained. Three animals per dose per time points were used. The levels of compound in the plasma and brain were determined by standard LC/MS/MS methods. Brain/plasma ratio (BPR) was calculated as the ratio of the Cmax(brain)/Cmax(plasma).

[6] = system: Human Hepatocytes; assay: Compound stability in hepatocytes; conditions: 5 μM
Description: To assess the stability and metabolism of RGFP compounds in hepatocytes. This assay was designed to evaluate the metabolism of RGFP compounds, following their incubation with human, monkey, dog and rat hepatocytes by monitoring either parent drug disappearance or metabolite appearance using HPLC.
Procedure: • Turn on the water-bath heater to 37° C. • Take out the KHB buffer and make sure it is at room temp before use • Prepare 2.5 mM concentration of RGFP compound in DMSO stock • Add 10 μL of above DMSO stock to 2490 μL KHB buffer; final concentration of RGFP compound will be 10 μM • Pre-warm 45 ml InVitro HT Medium to 37° C. in a sterile 50 ml conical tube • Add 1.0 mL Torpedo Antibiotic Mix per 45 mL InVitro HT medium • Transfer 13 mL of warm HT medium with Antibiotic Mix into a 15 mL conical tube. • Carefully remove the hepatocyte vials from liquid nitrogen (liquid phase). • Immediately immerse the vial into a 37° C. water bath. Shake gently until the ice melts entirely. […] Loosen the cell pellet by gently swirling the centrifuge tube • Transfer 100 μL of above solution to a different tube and add 900 μL of KHB buffer to count the cells • Determine the total cell count and the number of viable cells using the Trypan Blue exclusion method • Once you obtain the cell count, multiply the number by 10 (attributing to the dilution factor) • Now add required volume of KHB buffer to the tube containing hepatocytes such that the final count will be 2 million cells/mL • Dispense 50 μL of 2 million cells/ml to a 96 well plate and then add 50 μl of DMSO stock to respective wells (such that, the concentration of RGFP compounds is 5 μM and number of cells are 100000 in each well) • Place the plates on a shaker in a 37° C. incubator with 5% CO2 • Separate plates for each time point are advisable (Time points: 0 h, 1 h, 2 h, and 6 h) • After each time point, add 100 μL of quenching solution. • Quenching solution is an acetonitrile solution containing RGFP531 (10 μM) internal standard, 0.1% formic acid and phenylglyoxol (400 μM). The formic acid and phenylglyoxal is used for the identification and quantification of OPD as mentioned above. • Pipette up and down a few times to ensure a complete stop of reaction • Transfer all the solution into a 1.5 ml tube, vortex thoroughly, and centrifuge at 14000 RPM at 4° C. for 5 minutes to precipitate cell debris
Transfer the 150 μL of supernatant to vials for analysis using HPLC

[7] = Acid stability determination; format: physicochemical; conditions: 100 μM in 0.01 M HCl, 50° C.
Description: A 100 μM solution of test compound was prepared by dilution of a 10 mM DMSO stock solution in a 0.01 M solution of HCl in deionized water. Immediately after mixing, an aliquot (100 μL) was sampled and analyzed by HPLC/UV. The area under the compound peak was determined and used as the time zero reference point. The remainder of the acid sample was incubated at 50° C. and samples were taken after 2, 4, and 24 hours of incubation. On a few occasions, samples were taken at 30 rather than 24 hours. These were analyzed by the same HPLC/UV method and the area of the peak corresponding to the test compound was measured. Percent remaining at a given time point was then calculated as the ratio of the area under the peak after incubation to that at time zero times 100. In those cases where a 30 hour time point was recorded, the percent remaining at 24 hours was obtained by interpolation of the percent remaining versus time curve assuming a unimolecular process, i.e. a monoexponential decay. Percent remaining after 24 hours incubation are presented in Tables 2 and 4 below, where A corresponds to more than 60%, B is between 40 and 60%, C covers 20 to 40% and D means less than 20%.

[8] = system: Frataxin (FXN) mRNA; assay: Effect of HDAC inhibitors on frataxin (FXN) mRNA expression in Friedreich's ataxia patient primary lymphocytes; format: cell-based, human; conditions: for EC (2-fold FXN mRNA): Homo sapiens, Lymphocyte, Friedreich's ataxia patient primary lymphocytes, 48 hours, read-out: FXN 2x (concentration required for a 2-fold increase in FXN mRNA); for F × n > 2X (uM): Table 4, concentration for 2-fold increase in FXN mRNA
Description: Blood is collected from Friedreich's ataxia patient donors into tubes containing the anti-coagulant EDTA. Primary lymphocytes are isolated using Lymphocyte Separation Medium (MP Biomedicals, Solon, Ohio) following the manufacturer's instructions and including a few modifications made by Repligen. After a final wash in Phosphate Buffered Saline (PBS), the cells are distributed into a 6-well cell culture plate in cell growth medium. The test HDAC inhibitor compound is added to cells in a dose escalating manner (usually concentrations range from 1 to 10 μM) and 0.1% DMSO is added to one well of cells as a no treatment control. Cells are incubated for 48 hours at 37° C. in a CO2 incubator; cell counts are taken using a Countess automated cell counter (Invitrogen, Carlsbad, Calif.). Equivalent numbers of cells for all treatment conditions are pelleted by centrifugation and resuspended in cell lysis buffer. Total RNA is isolated from approximately 1×10^6 primary lymphocytes using a RNeasy Mini Kit (Qiagen, Valencia, Calif.), following the manufacturer's instructions and including an optional on-column DNAse digestion step. The isolation is performed either manually or using the QIAcube (Qiagen, Valencia, Calif.), an instrument that automates much of the isolation procedure. The RNA yield and concentration is determined using a Nanodrop spectrophotometer (Thermo Fisher Scientific, Waltham, Mass.) and depending on the RNA concentration, one of two protocols is used to measure frataxin (FXN) transcript levels. For samples containing at least 15 ng/μL RNA a TaqMan® Probe-based (Applied Biosystems, Carlsbad, Calif.) qRT-PCR method is used, while for samples containing less than 15 ng/μL RNA a SYBR Green qRT-PCR method is used. In the TaqMan® Probe-based method specific primer/probe pairs for FXN and GAPDH are multiplexed in each reaction. In the SYBR Green method FXN and GAPDH are amplified in separate reactions. In both methods each RNA sample is analyzed in triplicate (preferably) or duplicate (minimally) using a one-step qRT-PCR master mix that contains all the components necessary for cDNA synthesis and PCR amplification in a single, continuous reaction. After cycling is complete, MxPro Software (Agilent Technologies, Santa Clara, Calif.) is used to analyze the collected data and determine the relative amount of FXN mRNA compared to a control sample. An adaptive baseline method is used for baseline correction whereby an algorithm automatically selects the appropriate baseline cycles for each well and each dye. An amplification-based threshold is set and the corresponding threshold cycle, or Ct, is obtained for calculating target concentration. The Ct values for each target gene (FXN and GAPDH) for each replicate series are averaged. The amount of FXN (or GAPDH) in the sample is determined as the relative quantity to the calibrator where the calibrator sample is assigned an arbitrary quantity of 1. The following equation is used: Relative quantity to the calibrator=2^−ΔCt where ΔCt=(Ct_gene)unknown−(Ct_gene)calibrator, gene is either FXN or GAPDH, calibrator is a DMSO control sample, and unknown is a HDACi treated sample. The relative quantity of FXN is normalized to cell number and RNA input. Data is reported in Tables 2 and 4 below, where the concentration required for a 2-fold increase in FXN mRNA is reported as A if less than 5 μM, B if between 5 and 10 μM, C if greater than 10 μM.

[9] = Table 1, 2 hours pre-incubation

HDAC1, sequence (Q13547 whole entry): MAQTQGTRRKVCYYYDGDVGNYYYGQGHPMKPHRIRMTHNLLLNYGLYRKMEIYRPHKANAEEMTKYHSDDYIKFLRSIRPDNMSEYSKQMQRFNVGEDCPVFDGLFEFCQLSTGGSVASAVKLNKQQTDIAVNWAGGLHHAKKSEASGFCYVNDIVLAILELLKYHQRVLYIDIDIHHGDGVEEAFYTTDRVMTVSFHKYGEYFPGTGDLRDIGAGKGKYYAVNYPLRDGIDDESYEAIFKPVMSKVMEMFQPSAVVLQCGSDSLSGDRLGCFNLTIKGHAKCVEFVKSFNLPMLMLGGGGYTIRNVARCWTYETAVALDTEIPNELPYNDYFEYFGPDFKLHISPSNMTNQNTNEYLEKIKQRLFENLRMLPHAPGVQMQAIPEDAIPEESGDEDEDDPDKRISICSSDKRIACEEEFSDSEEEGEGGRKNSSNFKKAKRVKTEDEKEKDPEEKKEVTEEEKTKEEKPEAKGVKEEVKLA
HDAC3/NcoR2, sequence (O15379 whole entry): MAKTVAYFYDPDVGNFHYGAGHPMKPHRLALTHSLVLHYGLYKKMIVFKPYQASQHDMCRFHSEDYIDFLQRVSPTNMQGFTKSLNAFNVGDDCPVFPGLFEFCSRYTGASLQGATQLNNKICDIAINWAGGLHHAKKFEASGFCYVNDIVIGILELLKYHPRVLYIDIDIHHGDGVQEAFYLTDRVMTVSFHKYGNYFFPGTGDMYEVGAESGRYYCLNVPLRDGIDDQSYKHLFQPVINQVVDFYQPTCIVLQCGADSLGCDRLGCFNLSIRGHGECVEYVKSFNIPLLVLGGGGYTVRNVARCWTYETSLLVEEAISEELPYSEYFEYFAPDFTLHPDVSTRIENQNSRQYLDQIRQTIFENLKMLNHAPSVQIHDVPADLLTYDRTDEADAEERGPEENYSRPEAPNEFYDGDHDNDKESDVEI
HDAC3/NcoR2, sequence (Q9Y618 395-489 partner): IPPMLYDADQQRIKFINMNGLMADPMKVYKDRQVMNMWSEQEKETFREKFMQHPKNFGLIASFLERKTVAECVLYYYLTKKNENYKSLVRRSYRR
HDAC2, sequence (Q92769 whole entry): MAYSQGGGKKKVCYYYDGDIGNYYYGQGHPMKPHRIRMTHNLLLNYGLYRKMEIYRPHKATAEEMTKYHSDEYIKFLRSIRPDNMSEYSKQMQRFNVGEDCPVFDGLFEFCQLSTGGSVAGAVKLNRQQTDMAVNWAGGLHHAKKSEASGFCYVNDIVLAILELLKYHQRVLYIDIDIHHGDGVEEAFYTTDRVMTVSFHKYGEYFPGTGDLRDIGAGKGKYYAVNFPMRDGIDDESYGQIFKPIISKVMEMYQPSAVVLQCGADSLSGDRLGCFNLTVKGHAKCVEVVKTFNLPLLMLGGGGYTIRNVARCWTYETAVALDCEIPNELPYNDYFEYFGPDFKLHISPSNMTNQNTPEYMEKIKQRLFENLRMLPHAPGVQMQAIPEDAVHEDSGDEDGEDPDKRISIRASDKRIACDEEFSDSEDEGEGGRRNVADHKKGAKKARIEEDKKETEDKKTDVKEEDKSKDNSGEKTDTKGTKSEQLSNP

| SMILES | IC50 [2, 9] [µM] | IC50 [3, 9] [µM] | IC50 [4, 9] [µM] | BPR [5] | % left 6 h Hum [6] | IC50 ([2]; Table 4) [µM] | IC50 ([3]; Table 4) [µM] | IC50 ([4]; Table 4) [µM] | further results |
| --- | --- | --- | --- | --- | --- | --- | --- | --- | --- |
| CN1CCC(Cn2cc(/C=C/C(=O)Nc3ccccc3N)cn2)CC1 [G1, (E)-N-(2-aminophenyl)-3-(1-((1-methylpiperidin-4-yl)methyl)-1H-pyrazol-4-yl)acrylamide] | 1 to 5 | < 1 | 1 to 5 |  |  |  |  |  | IC50 ([1]; Homo sapiens, GM15850): 1 to 5 µM |
| Nc1ccccc1NC(=O)c1ccc(C=C2CN(CC3CC3)C2)c(Cl)c1 [F10] |  |  |  | A (A is greater than 1) | B (50%>B>30%) |  |  |  |  |
| Nc1ccccc1NC(=O)c1ccc(C=C2CCN(Cc3cccnc3)CC2)c(Cl)c1 [F7] | < 1 | < 1 | < 1 |  | C (30%>C>10%) | < 1 | < 1 | < 1 |  |
| Nc1ccccc1NC(=O)c1ccc(C=C2CN(CC3CC3)C2)cc1 [F12] |  |  |  | A (A is greater than 1) | A (50%<A) | < 1 | < 1 | < 1 | F × n > 2X (uM) [8]: A (A if less than 5 μM) |
| CC(C)(O)CN1CCC(=Cc2ccc(C(=O)Nc3ccccc3N)cc2)CC1 [F15] |  |  |  | A (A is greater than 1) | A (50%<A) | < 1 | < 1 | < 1 | F × n > 2X (uM) [8]: A (A if less than 5 μM) |
| CC(C)(C)CN1CCC(=Cc2ccc(C(=O)Nc3ccccc3N)cc2)CC1 [F14] |  |  |  | A (A is greater than 1) | C (30%>C>10%) | < 1 | < 1 | < 1 | F × n > 2X (uM) [8]: A (A if less than 5 μM) |
| Cc1nn(C/C=C/c2ccccc2)c(C)c1/C=C/C(=O)Nc1ccccc1N [G2, (E)-N-(2-aminophenyl)-3-(1-cinnamyl-3,5-dimethyl-1H-pyrazol-4-yl)acrylamide] | 1 to 5 | < 1 | 1 to 5 |  |  |  |  |  | IC50 ([1]; Homo sapiens, GM15850): 10 to 20 µM |
| Cc1cccc(CN2CC(=Cc3ccc(C(=O)Nc4ccccc4N)cc3)C2)n1 [F16] |  |  |  |  | C (30%>C>10%) | < 1 | < 1 | < 1 |  |
| CN1C2CCC1CC(=Cc1ccc(C(=O)Nc3ccccc3N)cc1Cl)C2 [F8] |  |  |  | C (C is 0.2 to 0.5) |  | < 1 | < 1 | < 1 |  |
| Nc1ccccc1NC(=O)c1ccc(C=C2COC2)c(Cl)c1 [F11] |  |  |  | A (A is greater than 1) | C (30%>C>10%) |  | < 1 | < 1 |  |
| Nc1ccccc1NC(=O)/C=C/c1cnn(CCc2ccccc2)c1 [D7] | 1 to 5 | < 1 | < 1 |  |  |  |  |  | acid stability (percent remaining after 24 hours incubation) [7]: B (B is between 40 and 60%); EC (2-fold FXN mRNA) [8]: 5 to 10 µM |
| Nc1cc(F)ccc1NC(=O)c1ccc(C=C2CN(CC3CC3)C2)cc1 [F20] |  |  |  |  | A (50%<A) | 1 to 5 | < 1 | 1 to 5 |  |
| Nc1ccccc1NC(=O)c1ccc(C=C2CCN(Cc3cccnc3)CC2)cc1 [F2] | < 1 | < 1 | < 1 |  |  |  |  |  | acid stability (percent remaining after 24 hours incubation) [7]: B (B is between 40 and 60%); EC (2-fold FXN mRNA) [8]: < 5 µM |
| Cn1cc(/C=C/C(=O)Nc2cc(F)ccc2N)cn1 [C3] |  |  |  |  |  |  |  |  | IC50 [1]: > 20 µM; IC50 [2]: 1 to 5 µM; IC50 [3]: < 1 µM; IC50 [4]: 1 to 5 µM |
| Nc1ccccc1NC(=O)c1ccc(C=C2CN(Cc3cccnc3)C2)cc1 [F18] |  |  |  |  | C (30%>C>10%) | < 1 | < 1 | < 1 |  |

The next lines start with results.

| IC50 [2, 9] [µM] | IC50 [3, 9] [µM] | IC50 [4, 9] [µM] | BPR [5] | % left 6 h Hum [6] | IC50 ([2]; Table 4) [µM] | IC50 ([3]; Table 4) [µM] | IC50 ([4]; Table 4) [µM] | SMILES | further results |
| --- | --- | --- | --- | --- | --- | --- | --- | --- | --- |
| 1 to 5 | < 1 | < 1 |  |  |  |  |  | Nc1ccccc1NC(=O)/C=C/c1cnn(Cc2ccccc2)c1 [D4] | acid stability (percent remaining after 24 hours incubation) [7]: A (A corresponds to more than 60%); EC (2-fold FXN mRNA) [8]: > 10 µM |
|  |  |  |  | IA (IA<10%) |  | < 1 | < 1 | Nc1ccccc1NC(=O)c1ccc(C=C2COC2)cc1F [F9] |  |
|  |  |  |  | C (30%>C>10%) | < 1 | < 1 | < 1 | Nc1ccccc1NC(=O)c1ccc(C=C2CN(Cc3ccccc3)C2)cc1 [F17] |  |
| < 1 | < 1 | < 1 |  |  |  |  |  | Nc1ccccc1NC(=O)/C=C/c1cnn(CCOc2ccccc2)c1 [D3, (E)-N-(2-aminophenyl)-3-(1-(2-phenoxyethyl)-1H-pyrazol-4-yl)acrylamide] | acid stability (percent remaining after 24 hours incubation) [7]: A (A corresponds to more than 60%); EC (2-fold FXN mRNA) [8]: 5 to 10 µM |
| < 1 | < 1 | < 1 |  |  |  |  |  | Nc1ccccc1NC(=O)/C=C/c1cnn(CCOCc2ccccc2)c1 [D14] | acid stability (percent remaining after 24 hours incubation) [7]: B (B is between 40 and 60%); EC (2-fold FXN mRNA) [8]: 5 to 10 µM |
|  |  |  | A (A is greater than 1) | B (50%>B>30%) | < 1 | < 1 | < 1 | Nc1ccccc1NC(=O)c1ccc(C=C2CCN(CC3CC3)CC2)cc1 [F13] |  |
| < 1 | < 1 | < 1 |  |  |  |  |  | Nc1ccccc1NC(=O)c1ccc(C=C2CN(Cc3ccc4cc[nH]c4c3)C2)cc1 [F3] | acid stability (percent remaining after 24 hours incubation) [7]: B (B is between 40 and 60%); EC (2-fold FXN mRNA) [8]: < 5 µM |
|  |  |  |  | A (50%<A) | 1 to 5 | < 1 | < 1 | CC(C)(O)CN1CC(=Cc2ccc(C(=O)Nc3ccccc3N)cc2)C1 [F19] |  |
